# Reference: patent US10681909B2, “Herbicidal triazoles” (FMC Corporation, priority 2014, dated 2020)
# Legend:
# galium [1] = assay: Test A postemergence; format: in vivo, Galium aparine; conditions: 0 to 100 scale (0 no effect, 100 complete control), approx. 10 d
# Method in brief: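 Weed and crop species in loam–sand blend sprayed preemergence on soil or postemergence at 2–10 cm, one- to two-leaf stage, with chemicals in surfactant-containing solvent. Injury rated visually after ~10 d in greenhouse versus untreated controls on a 0–100 scale (100 = complete control).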
# nutsedge, yellow = assay: Test C preemergence; format: in vivo, Cyperus esculentus; conditions: for Plant response rating (scale of 0 to 100 where 0 is no effect and 100 is complete control): Nutsedge, Yellow, preemergence; for Nutsedge, Yellow plant response rating (0 to 100): Preemergence, visual rating after 13 to 15 d
# Text: (§1) Seeds of plant species selected from blackgrass (Alopecurus myosuroides), ryegrass, Italian (Italian ryegrass, Lolium multiflorum), wheat (winter wheat, Triticum aestivum), galium (catchweed bedstraw, Galium aparine), corn (Zea mays), crabgrass, large (large crabgrass, Digitaria sanguinalis), foxtail, giant, (giant foxtail, Setaria faberii), johnsongrass (Sorghum halepense), lambsquarters (Chenopodium album), morningglory (Ipomoea coccinea), nutsedge, yellow (yellow nutsedge, Cyperus esculentus), pigweed (Amaranthus retroflexus), ragweed (common ragweed, Ambrosia elatior), soybean (Glycine max), barnyardgrass (Echinochloa crus-galli), oilseed rape (Brassica napus), waterhemp (common waterhemp, Amaranthus rudis), and velvetleaf (Abutilon theophrasti) were planted into a blend of loam soil and sand and treated preemergence with test chemicals formulated in a non-phytotoxic solvent mixture which included a surfactant. At the same time, plants selected from these crop and weed species and also chickweed (common chickweed, Stellaria media), oat, wild (wild oat, Avena fatua), and kochia (Kochia scoparia), were planted in pots containing Sunshine Redi-Earth® planting medium comprising spaghnum peat moss, vermiculite, starter nutrients and dolomitic limestone and treated with postemergence applications of test chemicals formulated in the same manner. Plants ranged in height from 2 to 18 cm (1- to 4-leaf stage) for postemergence treatments. […] A dash (-) response means no test result.
# pigweed = assay: Test C preemergence; format: in vivo, Amaranthus retroflexus; conditions: for Plant response rating (scale of 0 to 100 where 0 is no effect and 100 is complete control): Pigweed, preemergence; for Pigweed plant response rating (0 to 100): Preemergence, visual rating after 13 to 15 d
# Text: as §1
# waterhemp = assay: Test C preemergence; format: in vivo, Amaranthus rudis; conditions: for Waterhemp plant response rating (0 to 100): Preemergence, visual rating after 13 to 15 d; for Plant response rating (scale of 0 to 100 where 0 is no effect and 100 is complete control): Waterhemp, preemergence, 250 g ai/ha
# Text: as §1
# lambsquarters = assay: Test D preemergence; format: in vivo, Chenopodium album; conditions: for Plant response rating: Lambsquarters: scale 0 to 100
# Text: (§2) Seeds of plant species selected from bluegrass (annual bluegrass, Poa annua), blackgrass (Alopecurus myosuroides), canarygrass (Phalaris minor), chickweed (common chickweed, Stellaria media), galium (catchweed bedstraw, Galium aparine), bromegrass, down (downy bromegrass, Bromus tectorum), Russian thistle (Salsola kali), field poppy (Papaver rhoeas), field violet (Viola arvensis), foxtail, green (green foxtail, Setaria viridis), deadnettle (henbit deadnettle, Lamium amplexicaule), ryegrass, Ital. (Italian ryegrass, Lolium multiflorum), kochia (Kochia scoparia), lambsquarters (Chenopodium album), oilseed rape (Brassica napus), pigweed (Amaranthus retroflexus), chamomile (scentless chamomile, Matricaria inodora), speedwell (bird's-eye speedwell, Veronica persica), barley, spring (spring barley, Hordeum vulgare), wheat, spring (spring wheat, Triticum aestivum), buckwheat, wild (wild buckwheat, Polygonum convolvulus), wild mustard (Sinapis arvensis), oat, wild (wild oat, Avena fatua), radish, wild (wild radish, Raphanus raphanistrum), […]), barley, winter (winter barley, Hordeum vulgare), and wheat, winter (winter wheat, Triticum aestivum) were planted into a silt loam soil and treated preemergence with test chemicals formulated in a non-phytotoxic solvent mixture which included a surfactant. At the same time, these species were planted in pots containing Sunshine Redi-Earth® planting medium comprising spaghnum peat moss, vermiculite, starter nutrients and dolomitic limestone and treated with postemergence applications of the test chemicals formulated in the same manner. Plants ranged in height from 2 to 18 cm (1- to 4-leaf stage). Treated plants and controls were maintained in a controlled growth environment for 14 to 21 d after which time all species were compared to controls and visually evaluated. […] A dash (-) response means no test result.
# oilseed rape = assay: Test D preemergence; format: in vivo, Brassica napus; conditions: for Plant response rating: Oilseed Rape: scale 0 to 100
# Text: as §2
# wheat, spring [2] = assay: Test D preemergence; format: in vivo, Triticum aestivum; conditions: for Plant response rating: Wheat, Spring: scale 0 to 100
# Text: as §2
# wheat, winter [3] = assay: Test D preemergence; format: in vivo, Triticum aestivum; conditions: for Plant response rating: Wheat, Winter: scale 0 to 100
# Text: as §2
# galium [4] = assay: Test D postemergence; format: in vivo, Galium aparine; conditions: scale 0 to 100
# Text: as §2
# barley, spring = assay: Test D postemergence; format: in vivo, Hordeum vulgare; conditions: scale 0 to 100
# Text: as §2
# barley, winter = assay: Test D postemergence; format: in vivo, Hordeum vulgare; conditions: scale 0 to 100
# Text: as §2
# wheat, spring [5] = assay: Test D postemergence; format: in vivo, Triticum aestivum; conditions: scale 0 to 100
# Text: as §2
# wheat, winter [6] = assay: Test D postemergence; format: in vivo, Triticum aestivum; conditions: scale 0 to 100
# Text: as §2
# [7] = 16 g ai/ha, 0 is no effect, 100 is complete control
smiles,measurement,setting,value
FC(F)(F)COc1nc(-c2ccccc2)nn1Cc1ccnc(C(F)(F)F)c1 [Compound 24],"Plant response rating, Galium",galium [1]; 125 g ai/ha,70
same,"Plant response rating, Galium",galium [1]; 500 g ai/ha,90
same,Plant response rating (scale of 0 to 100 where 0 is no effect and 100 is complete control),"nutsedge, yellow; 125 g ai/ha",5
same,Plant response rating (scale of 0 to 100 where 0 is no effect and 100 is complete control),"nutsedge, yellow; 250 g ai/ha",15
same,"Nutsedge, Yellow plant response rating (0 to 100)","nutsedge, yellow; 31 g ai/ha",0
same,"Nutsedge, Yellow plant response rating (0 to 100)","nutsedge, yellow; 62 g ai/ha",0
same,Plant response rating (scale of 0 to 100 where 0 is no effect and 100 is complete control),pigweed; 125 g ai/ha,100
same,Plant response rating (scale of 0 to 100 where 0 is no effect and 100 is complete control),pigweed; 250 g ai/ha,100
same,Pigweed plant response rating (0 to 100),pigweed; 31 g ai/ha,100
same,Pigweed plant response rating (0 to 100),pigweed; 62 g ai/ha,100
same,Waterhemp plant response rating (0 to 100),waterhemp; 31 g ai/ha,100
same,Waterhemp plant response rating (0 to 100),waterhemp; 62 g ai/ha,100
same,Plant response rating (scale of 0 to 100 where 0 is no effect and 100 is complete control),waterhemp,100
same,"Plant response rating (0 to 100), Lambsquarters",lambsquarters; [7],65
same,Plant response rating: Lambsquarters,lambsquarters; 62 g ai/ha,80
same,Plant response rating: Lambsquarters,lambsquarters; 125 g ai/ha,85
same,"Plant response rating (0 to 100), Oilseed Rape",oilseed rape; [7],15
same,Plant response rating: Oilseed Rape,oilseed rape; 62 g ai/ha,55
same,Plant response rating: Oilseed Rape,oilseed rape; 125 g ai/ha,70
same,"Plant response rating (0 to 100), Wheat, Spring","wheat, spring [2]; [7]",15
same,"Plant response rating: Wheat, Spring","wheat, spring [2]; 62 g ai/ha",25
same,"Plant response rating: Wheat, Spring","wheat, spring [2]; 125 g ai/ha",15
same,"Plant response rating (0 to 100), Wheat, Winter","wheat, winter [3]; [7]",15
same,"Plant response rating: Wheat, Winter","wheat, winter [3]; 62 g ai/ha",20
same,"Plant response rating: Wheat, Winter","wheat, winter [3]; 125 g ai/ha",20
same,Plant response rating: Galium,galium [4]; 16 g ai/ha,55
same,Plant response rating: Galium,galium [4]; 31 g ai/ha,70
same,Plant response rating: Galium,galium [4]; 62 g ai/ha,65
same,Plant response rating: Galium,galium [4]; 125 g ai/ha,75
same,"Plant response rating: Barley, Spring","barley, spring; 16 g ai/ha",20
same,"Plant response rating: Barley, Spring","barley, spring; 31 g ai/ha",25
same,"Plant response rating: Barley, Spring","barley, spring; 62 g ai/ha",30
same,"Plant response rating: Barley, Spring","barley, spring; 125 g ai/ha",35
same,"Plant response rating: Barley, Winter","barley, winter; 16 g ai/ha",15
same,"Plant response rating: Barley, Winter","barley, winter; 31 g ai/ha",15
same,"Plant response rating: Barley, Winter","barley, winter; 62 g ai/ha",25
same,"Plant response rating: Barley, Winter","barley, winter; 125 g ai/ha",25
same,"Plant response rating: Wheat, Spring","wheat, spring [5]; 16 g ai/ha",15
same,"Plant response rating: Wheat, Spring","wheat, spring [5]; 31 g ai/ha",15
same,"Plant response rating: Wheat, Spring","wheat, spring [5]; 62 g ai/ha",25
same,"Plant response rating: Wheat, Spring","wheat, spring [5]; 125 g ai/ha",15
same,"Plant response rating: Wheat, Winter","wheat, winter [6]; 16 g ai/ha",15
same,"Plant response rating: Wheat, Winter","wheat, winter [6]; 31 g ai/ha",15
same,"Plant response rating: Wheat, Winter","wheat, winter [6]; 62 g ai/ha",20
same,"Plant response rating: Wheat, Winter","wheat, winter [6]; 125 g ai/ha",20
"CCOc1nc(-c2ccc(F)cc2)nn1Cc1ccnc(C(F)(F)F)c1 [Compound 8, 4-[[5-ethoxy-3-(4-fluorophenyl)-1H-1,2,4-triazol-1-yl]methyl]-2-(trifluoromethyl)pyridine]",Plant response rating (scale of 0 to 100 where 0 is no effect and 100 is complete control),"nutsedge, yellow; 125 g ai/ha",55
same,Plant response rating (scale of 0 to 100 where 0 is no effect and 100 is complete control),"nutsedge, yellow; 250 g ai/ha",80
same,"Nutsedge, Yellow plant response rating (0 to 100)","nutsedge, yellow; 31 g ai/ha",10
same,"Nutsedge, Yellow plant response rating (0 to 100)","nutsedge, yellow; 62 g ai/ha",40
same,Plant response rating (scale of 0 to 100 where 0 is no effect and 100 is complete control),pigweed; 125 g ai/ha,100
same,Plant response rating (scale of 0 to 100 where 0 is no effect and 100 is complete control),pigweed; 250 g ai/ha,100
same,Pigweed plant response rating (0 to 100),pigweed; 31 g ai/ha,100
same,Pigweed plant response rating (0 to 100),pigweed; 62 g ai/ha,100
same,Waterhemp plant response rating (0 to 100),waterhemp; 31 g ai/ha,98
same,Waterhemp plant response rating (0 to 100),waterhemp; 62 g ai/ha,100
same,Plant response rating (scale of 0 to 100 where 0 is no effect and 100 is complete control),waterhemp,100
same,Plant response rating: Lambsquarters,lambsquarters; 62 g ai/ha,100
same,Plant response rating: Lambsquarters,lambsquarters; 125 g ai/ha,100
same,Plant response rating: Lambsquarters,lambsquarters; 250 g ai/ha,100
same,Plant response rating: Oilseed Rape,oilseed rape; 62 g ai/ha,60
same,Plant response rating: Oilseed Rape,oilseed rape; 125 g ai/ha,100
same,Plant response rating: Oilseed Rape,oilseed rape; 250 g ai/ha,100
same,"Plant response rating: Wheat, Spring","wheat, spring [2]; 62 g ai/ha",15
same,"Plant response rating: Wheat, Spring","wheat, spring [2]; 125 g ai/ha",35
same,"Plant response rating: Wheat, Spring","wheat, spring [2]; 250 g ai/ha",70
same,"Plant response rating: Wheat, Winter","wheat, winter [3]; 62 g ai/ha",25
same,"Plant response rating: Wheat, Winter","wheat, winter [3]; 125 g ai/ha",40
same,"Plant response rating: Wheat, Winter","wheat, winter [3]; 250 g ai/ha",65
same,Plant response rating: Galium,galium [4]; 31 g ai/ha,75
same,Plant response rating: Galium,galium [4]; 62 g ai/ha,90
same,Plant response rating: Galium,galium [4]; 125 g ai/ha,95
same,Plant response rating: Galium,galium [4]; 250 g ai/ha,95
same,"Plant response rating: Barley, Spring","barley, spring; 31 g ai/ha",25
same,"Plant response rating: Barley, Spring","barley, spring; 62 g ai/ha",30
same,"Plant response rating: Barley, Spring","barley, spring; 125 g ai/ha",35
same,"Plant response rating: Barley, Spring","barley, spring; 250 g ai/ha",35
same,"Plant response rating: Barley, Winter","barley, winter; 31 g ai/ha",20
same,"Plant response rating: Barley, Winter","barley, winter; 62 g ai/ha",30
same,"Plant response rating: Barley, Winter","barley, winter; 125 g ai/ha",35
same,"Plant response rating: Barley, Winter","barley, winter; 250 g ai/ha",35
same,"Plant response rating: Wheat, Spring","wheat, spring [5]; 31 g ai/ha",25
same,"Plant response rating: Wheat, Spring","wheat, spring [5]; 62 g ai/ha",25
same,"Plant response rating: Wheat, Spring","wheat, spring [5]; 125 g ai/ha",35
same,"Plant response rating: Wheat, Spring","wheat, spring [5]; 250 g ai/ha",35
same,"Plant response rating: Wheat, Winter","wheat, winter [6]; 31 g ai/ha",25
same,"Plant response rating: Wheat, Winter","wheat, winter [6]; 62 g ai/ha",35
same,"Plant response rating: Wheat, Winter","wheat, winter [6]; 125 g ai/ha",35
same,"Plant response rating: Wheat, Winter","wheat, winter [6]; 250 g ai/ha",35
